Results on 11 compounds are retold here after ChEMBL document CHEMBL5465560, “Selectivity Literature for EUbOPEN Chemogenomic Library” (2024).

Assay [1] concerns the target T1, Alpha-2A adrenergic receptor (Homo sapiens) (UniProt P08913).
T1 sequence (whole entry): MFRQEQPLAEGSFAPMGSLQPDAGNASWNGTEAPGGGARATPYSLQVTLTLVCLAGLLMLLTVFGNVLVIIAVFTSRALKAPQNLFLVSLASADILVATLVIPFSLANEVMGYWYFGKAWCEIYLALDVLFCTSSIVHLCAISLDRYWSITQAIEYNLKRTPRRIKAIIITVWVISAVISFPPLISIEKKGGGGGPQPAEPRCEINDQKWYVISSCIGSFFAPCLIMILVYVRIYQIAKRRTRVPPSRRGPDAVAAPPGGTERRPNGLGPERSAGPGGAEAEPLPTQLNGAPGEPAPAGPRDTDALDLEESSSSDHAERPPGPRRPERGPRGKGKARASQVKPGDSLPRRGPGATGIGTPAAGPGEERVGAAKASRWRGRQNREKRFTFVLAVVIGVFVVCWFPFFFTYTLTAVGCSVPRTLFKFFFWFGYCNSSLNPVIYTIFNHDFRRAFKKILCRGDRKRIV
The assay can be described thus: Selectivity interaction (Eurofins CEREP Diversity Profile (receptors and ion channels)) EUB0000279b ADRA2A. As to conditions: at 10 µM.

For assay [2], the target named is Fibroblast growth factor receptor 1 (Homo sapiens, UniProt P11362). The experiment in a line: Selectivity interaction (KinomeScan (DiscoverX)) EUB0000695a FGFR1. To be noted: at 100 nM.
Chain of Fibroblast growth factor receptor 1 (P11362 22-822 limits assumed): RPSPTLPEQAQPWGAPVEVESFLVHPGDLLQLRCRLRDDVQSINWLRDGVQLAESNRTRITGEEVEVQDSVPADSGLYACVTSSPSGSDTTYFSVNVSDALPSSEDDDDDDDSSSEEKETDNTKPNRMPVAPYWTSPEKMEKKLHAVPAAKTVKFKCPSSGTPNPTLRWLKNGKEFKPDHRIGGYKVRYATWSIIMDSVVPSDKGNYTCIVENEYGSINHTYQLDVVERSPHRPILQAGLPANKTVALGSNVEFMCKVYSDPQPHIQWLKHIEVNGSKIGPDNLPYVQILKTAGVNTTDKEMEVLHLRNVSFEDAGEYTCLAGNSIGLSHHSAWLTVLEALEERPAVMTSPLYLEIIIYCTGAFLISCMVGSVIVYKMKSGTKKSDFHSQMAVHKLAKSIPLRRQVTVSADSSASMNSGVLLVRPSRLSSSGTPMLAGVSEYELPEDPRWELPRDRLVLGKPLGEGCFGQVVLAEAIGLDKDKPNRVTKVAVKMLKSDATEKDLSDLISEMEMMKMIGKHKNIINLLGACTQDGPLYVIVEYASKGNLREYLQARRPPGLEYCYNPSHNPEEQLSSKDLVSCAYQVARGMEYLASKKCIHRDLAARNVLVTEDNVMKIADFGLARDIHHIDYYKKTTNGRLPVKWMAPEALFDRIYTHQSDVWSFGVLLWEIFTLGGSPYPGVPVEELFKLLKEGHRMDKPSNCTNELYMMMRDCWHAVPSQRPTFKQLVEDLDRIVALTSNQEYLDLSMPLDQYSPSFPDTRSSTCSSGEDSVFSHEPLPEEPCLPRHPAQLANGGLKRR
Assay [3] concerns the target Ribosomal protein S6 kinase beta-1 (Homo sapiens, UniProt P23443). The experiment in a line: Selectivity interaction (KinomeScan (DiscoverX)) EUB0000695a RPS6KB1. To be noted: at 100 nM.
The target in assay [4] is Cyclin-dependent kinase-like 3 (Homo sapiens) (UniProt Q8IVW4). The experiment in a line: Selectivity interaction (KinomeScan (DiscoverX)) EUB0000666a CDKL3. As to conditions: at 10 µM.
Chain of Cyclin-dependent kinase-like 3 (Homo sapiens) (Q8IVW4 whole entry, looked up): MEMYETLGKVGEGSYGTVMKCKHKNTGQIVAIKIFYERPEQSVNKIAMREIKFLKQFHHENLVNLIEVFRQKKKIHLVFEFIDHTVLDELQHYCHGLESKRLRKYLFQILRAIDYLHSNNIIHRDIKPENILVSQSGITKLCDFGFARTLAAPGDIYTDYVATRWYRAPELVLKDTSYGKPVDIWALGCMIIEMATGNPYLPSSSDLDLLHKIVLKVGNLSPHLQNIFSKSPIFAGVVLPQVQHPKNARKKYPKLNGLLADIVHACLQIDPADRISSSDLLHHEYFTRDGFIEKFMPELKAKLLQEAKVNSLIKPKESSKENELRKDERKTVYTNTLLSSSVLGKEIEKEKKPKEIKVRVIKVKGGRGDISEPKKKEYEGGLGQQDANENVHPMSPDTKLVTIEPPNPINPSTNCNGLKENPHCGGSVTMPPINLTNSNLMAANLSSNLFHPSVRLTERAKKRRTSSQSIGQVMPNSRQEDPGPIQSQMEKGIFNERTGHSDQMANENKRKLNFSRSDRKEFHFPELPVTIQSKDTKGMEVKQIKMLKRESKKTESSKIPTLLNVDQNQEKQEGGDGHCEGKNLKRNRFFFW
Assay [5] addresses Serine/threonine-protein kinase tousled-like 2 (Homo sapiens) (UniProt Q86UE8). The experiment in a line: Selectivity interaction (KinomeScan (DiscoverX)) EUB0000666a TLK2. To be noted: at 10 µM.
Assay [6] deals with Receptor tyrosine-protein kinase erbB-2 (Homo sapiens, UniProt P04626). The assay can be described thus: Selectivity interaction (SelectScreen profiling (Invitrogen)) EUB0000607a ERBB2. To be noted: at 2 µM.
Chain of Receptor tyrosine-protein kinase erbB-2 (P04626 whole entry): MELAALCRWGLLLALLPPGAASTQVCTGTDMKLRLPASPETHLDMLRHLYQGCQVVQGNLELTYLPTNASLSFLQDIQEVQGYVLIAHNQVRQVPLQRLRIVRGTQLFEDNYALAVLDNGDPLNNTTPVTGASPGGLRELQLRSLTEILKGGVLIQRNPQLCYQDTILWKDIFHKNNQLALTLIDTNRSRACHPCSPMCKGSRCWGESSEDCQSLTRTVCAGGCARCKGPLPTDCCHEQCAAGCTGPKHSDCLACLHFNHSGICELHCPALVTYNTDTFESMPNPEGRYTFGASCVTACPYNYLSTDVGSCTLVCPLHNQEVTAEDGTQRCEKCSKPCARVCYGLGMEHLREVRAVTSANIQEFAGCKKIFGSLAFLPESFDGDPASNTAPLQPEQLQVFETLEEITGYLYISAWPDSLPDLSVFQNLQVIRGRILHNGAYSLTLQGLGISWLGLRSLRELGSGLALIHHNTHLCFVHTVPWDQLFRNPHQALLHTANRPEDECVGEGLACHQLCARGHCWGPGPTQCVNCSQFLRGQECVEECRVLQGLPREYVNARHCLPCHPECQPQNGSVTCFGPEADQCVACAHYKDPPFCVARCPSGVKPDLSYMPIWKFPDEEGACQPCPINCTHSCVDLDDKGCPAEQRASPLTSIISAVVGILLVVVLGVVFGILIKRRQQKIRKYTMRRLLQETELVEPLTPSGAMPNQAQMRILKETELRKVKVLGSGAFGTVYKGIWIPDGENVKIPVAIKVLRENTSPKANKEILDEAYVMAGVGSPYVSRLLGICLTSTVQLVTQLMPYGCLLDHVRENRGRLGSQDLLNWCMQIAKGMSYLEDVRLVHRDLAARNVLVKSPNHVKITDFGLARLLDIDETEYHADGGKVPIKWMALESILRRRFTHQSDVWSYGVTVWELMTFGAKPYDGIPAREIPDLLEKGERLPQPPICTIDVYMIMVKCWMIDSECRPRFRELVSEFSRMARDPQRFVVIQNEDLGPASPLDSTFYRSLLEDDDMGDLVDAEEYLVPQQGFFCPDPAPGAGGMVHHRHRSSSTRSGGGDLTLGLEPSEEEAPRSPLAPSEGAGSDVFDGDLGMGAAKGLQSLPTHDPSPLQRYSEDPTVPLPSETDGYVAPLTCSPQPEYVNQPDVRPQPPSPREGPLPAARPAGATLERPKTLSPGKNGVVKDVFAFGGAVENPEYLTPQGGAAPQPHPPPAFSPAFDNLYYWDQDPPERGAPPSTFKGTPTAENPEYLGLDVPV
For assay [7], the target named is T2, Tyrosine-protein kinase ZAP-70 (Homo sapiens) (UniProt P43403).
T2 sequence (whole entry): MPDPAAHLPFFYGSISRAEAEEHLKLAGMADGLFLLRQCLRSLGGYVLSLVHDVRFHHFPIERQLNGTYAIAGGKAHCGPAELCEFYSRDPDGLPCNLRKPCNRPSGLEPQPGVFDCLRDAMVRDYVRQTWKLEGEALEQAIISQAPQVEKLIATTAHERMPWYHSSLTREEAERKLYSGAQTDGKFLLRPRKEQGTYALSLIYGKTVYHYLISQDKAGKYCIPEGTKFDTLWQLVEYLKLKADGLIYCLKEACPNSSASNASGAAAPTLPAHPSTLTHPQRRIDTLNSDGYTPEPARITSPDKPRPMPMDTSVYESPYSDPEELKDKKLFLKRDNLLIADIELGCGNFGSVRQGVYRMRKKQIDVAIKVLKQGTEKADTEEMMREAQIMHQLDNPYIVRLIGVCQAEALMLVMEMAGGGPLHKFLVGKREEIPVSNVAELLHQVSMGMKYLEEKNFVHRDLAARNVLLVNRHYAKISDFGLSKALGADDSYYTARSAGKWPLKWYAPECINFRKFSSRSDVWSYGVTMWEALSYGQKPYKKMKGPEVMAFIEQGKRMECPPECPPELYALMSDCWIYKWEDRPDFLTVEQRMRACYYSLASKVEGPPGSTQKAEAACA
The experiment in a line: Selectivity interaction (ProQinase) EUB0000171b ZAP70.

Assay [8] has as its target Dual specificity tyrosine-phosphorylation-regulated kinase 1A (Homo sapiens, UniProt Q13627). The assay can be described thus: Selectivity interaction (Ambit KINOMEscan and KiNATiv profiling in Jurkat cells) EUB0000090b DYRK1A. Format: cell-based. To be noted: at 1 µM.
Assay [9] concerns the target Serine/threonine-protein kinase SIK1 (Homo sapiens) (UniProt P57059). The assay can be described thus: Selectivity interaction (Upstate Kinase Profiler service (Millipore)) EUB0000056c SIK1. As to conditions: at 1 µM.
For assay [10], the target named is Transient receptor potential cation channel subfamily M member 6 (Homo sapiens) (UniProt Q9BX84). The experiment in a line: Selectivity interaction (KinomeScan (DiscoverX)) EUB0000655a TRPM6. As to conditions: at 10 µM.
The target in assay [11] is Dual specificity protein kinase CLK2 (Homo sapiens, UniProt P49760). The assay can be described thus: Selectivity interaction (KinomeScan (DiscoverX)) EUB0000618a CLK2. To be noted: at 10 µM.
Chain of Dual specificity protein kinase CLK2 (P49760 whole entry, looked up): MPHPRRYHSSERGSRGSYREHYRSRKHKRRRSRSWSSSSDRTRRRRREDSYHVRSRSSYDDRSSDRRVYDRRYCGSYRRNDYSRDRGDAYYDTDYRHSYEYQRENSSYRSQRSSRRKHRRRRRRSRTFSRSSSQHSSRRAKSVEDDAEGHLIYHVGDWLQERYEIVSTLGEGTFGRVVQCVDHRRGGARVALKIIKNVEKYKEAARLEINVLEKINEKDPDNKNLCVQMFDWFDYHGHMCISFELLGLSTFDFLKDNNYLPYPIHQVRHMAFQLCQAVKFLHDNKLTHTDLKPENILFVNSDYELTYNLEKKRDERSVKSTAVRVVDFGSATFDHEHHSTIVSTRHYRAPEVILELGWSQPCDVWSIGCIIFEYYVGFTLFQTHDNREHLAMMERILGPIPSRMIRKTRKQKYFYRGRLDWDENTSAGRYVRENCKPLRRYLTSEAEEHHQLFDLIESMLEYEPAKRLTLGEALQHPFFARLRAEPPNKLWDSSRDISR
For assay [12], the target named is T3, Cyclin-dependent kinase-like 2 (Homo sapiens) (UniProt Q92772).
T3 sequence (whole entry): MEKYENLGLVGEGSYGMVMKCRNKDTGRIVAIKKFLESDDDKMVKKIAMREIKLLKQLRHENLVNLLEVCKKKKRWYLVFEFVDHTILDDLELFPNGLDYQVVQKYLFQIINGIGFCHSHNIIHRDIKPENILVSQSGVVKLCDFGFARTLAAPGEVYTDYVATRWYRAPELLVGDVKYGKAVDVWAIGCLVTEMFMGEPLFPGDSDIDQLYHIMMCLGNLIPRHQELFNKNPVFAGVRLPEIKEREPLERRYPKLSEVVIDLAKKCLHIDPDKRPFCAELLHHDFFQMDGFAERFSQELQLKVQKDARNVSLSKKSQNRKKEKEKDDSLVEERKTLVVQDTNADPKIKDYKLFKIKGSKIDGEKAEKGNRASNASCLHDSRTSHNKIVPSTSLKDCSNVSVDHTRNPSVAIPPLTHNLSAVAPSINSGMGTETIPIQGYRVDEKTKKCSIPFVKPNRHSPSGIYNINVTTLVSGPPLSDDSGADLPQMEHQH
The assay can be described thus: Selectivity interaction (KinomeScan (DiscoverX)) EUB0001079a CDKL2. As to conditions: at 1 µM.

Assay [13] has as its target T4, 3-phosphoinositide-dependent protein kinase 1 (Homo sapiens) (UniProt O15530).
T4 sequence (whole entry): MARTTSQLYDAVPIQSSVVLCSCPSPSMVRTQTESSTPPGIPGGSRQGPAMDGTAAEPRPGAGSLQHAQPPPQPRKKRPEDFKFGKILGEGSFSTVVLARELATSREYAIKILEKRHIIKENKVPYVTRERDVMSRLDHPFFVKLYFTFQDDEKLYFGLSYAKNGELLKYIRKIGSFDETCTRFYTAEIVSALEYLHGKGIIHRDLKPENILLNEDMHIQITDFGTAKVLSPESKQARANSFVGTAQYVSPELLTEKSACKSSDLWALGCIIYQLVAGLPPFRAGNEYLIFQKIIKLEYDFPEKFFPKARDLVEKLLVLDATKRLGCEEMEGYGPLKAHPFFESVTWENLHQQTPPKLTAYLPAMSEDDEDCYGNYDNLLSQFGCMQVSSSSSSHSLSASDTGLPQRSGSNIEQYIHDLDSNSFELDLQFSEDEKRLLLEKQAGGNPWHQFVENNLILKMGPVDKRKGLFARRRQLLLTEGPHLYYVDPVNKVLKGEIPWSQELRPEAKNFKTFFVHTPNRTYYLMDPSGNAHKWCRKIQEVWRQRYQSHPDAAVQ
The experiment in a line: Selectivity interaction (KinomeScan (DiscoverX)) EUB0000229b PDPK1. As to conditions: at 10 µM.

Chain of Ribosomal protein S6 kinase beta-1 (P23443 whole entry, looked up): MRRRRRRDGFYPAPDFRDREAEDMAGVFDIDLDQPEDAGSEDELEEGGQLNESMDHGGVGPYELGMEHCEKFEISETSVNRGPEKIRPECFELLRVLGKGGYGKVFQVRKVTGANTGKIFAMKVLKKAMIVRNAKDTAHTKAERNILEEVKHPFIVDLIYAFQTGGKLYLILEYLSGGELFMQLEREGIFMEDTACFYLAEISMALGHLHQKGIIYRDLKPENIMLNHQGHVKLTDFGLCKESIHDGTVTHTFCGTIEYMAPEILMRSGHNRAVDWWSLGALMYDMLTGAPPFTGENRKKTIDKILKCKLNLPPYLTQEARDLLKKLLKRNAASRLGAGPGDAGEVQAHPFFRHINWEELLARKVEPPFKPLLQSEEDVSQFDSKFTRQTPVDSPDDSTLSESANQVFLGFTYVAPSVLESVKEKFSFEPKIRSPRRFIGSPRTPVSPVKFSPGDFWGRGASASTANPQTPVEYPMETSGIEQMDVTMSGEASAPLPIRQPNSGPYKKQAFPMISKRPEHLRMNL
Chain of Serine/threonine-protein kinase tousled-like 2 (Homo sapiens) (Q86UE8 whole entry, looked up): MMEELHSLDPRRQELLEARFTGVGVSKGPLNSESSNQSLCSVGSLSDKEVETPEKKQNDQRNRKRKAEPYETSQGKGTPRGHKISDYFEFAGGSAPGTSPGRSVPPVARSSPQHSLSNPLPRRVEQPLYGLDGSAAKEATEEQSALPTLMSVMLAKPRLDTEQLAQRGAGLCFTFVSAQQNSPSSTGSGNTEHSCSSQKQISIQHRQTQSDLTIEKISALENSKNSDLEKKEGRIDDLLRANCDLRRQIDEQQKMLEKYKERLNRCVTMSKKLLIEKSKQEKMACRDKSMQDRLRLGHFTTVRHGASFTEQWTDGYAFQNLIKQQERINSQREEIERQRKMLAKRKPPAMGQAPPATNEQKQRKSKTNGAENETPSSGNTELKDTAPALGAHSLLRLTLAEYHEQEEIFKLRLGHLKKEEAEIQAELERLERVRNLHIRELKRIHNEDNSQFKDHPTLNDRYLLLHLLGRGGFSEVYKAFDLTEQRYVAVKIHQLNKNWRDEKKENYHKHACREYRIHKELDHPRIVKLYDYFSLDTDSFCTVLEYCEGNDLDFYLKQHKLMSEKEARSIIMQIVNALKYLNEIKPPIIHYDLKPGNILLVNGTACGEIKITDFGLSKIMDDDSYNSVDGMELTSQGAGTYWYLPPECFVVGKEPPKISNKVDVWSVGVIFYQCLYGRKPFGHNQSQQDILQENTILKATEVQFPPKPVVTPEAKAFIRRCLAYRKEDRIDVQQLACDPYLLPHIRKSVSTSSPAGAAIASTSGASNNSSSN

Compound `CC(=O)c1cc(-c2ccccc2OCC2CC2)c2ncccn12` had a % of control in [1] of 100%.
`Cc1cc(F)c(C(=O)Nc2cccc(-c3nncn3C(C)C)n2)cc1-n1cnc(C2CC2)c1`: the % of control in [2] and in assay [3] was 100% each time.
With `O=C(NOC[C@H](O)CO)c1ccc(F)c(F)c1Nc1ccc(I)cc1F`, the % of control in [4] and in [5] was 98% each time.
Turning to `CNC(=O)Nc1ccc(-c2nc(N3CC4CCC(C3)O4)c3cnn(C4CCC5(CC4)OCCO5)c3n2)cc1`, in assay [6], the % of inhibition worked out at 0%.
In the case of `C=CC(=O)Nc1cccc(C(=O)Nc2ccc(Nc3cc(-c4[nH]c(SC)nc4C)ccn3)cc2)c1`, the % of control in assay [7] (at 1 µM) stood at 88%; in assay [7] (at 5 µM) it was 93%.
Regarding `CN(C)C/C=C/C(=O)Nc1ccc(C(=O)N2CCCC(Nc3ncc(Cl)c(-c4c[nH]c5ccccc45)n3)C2)cc1` (centres undefined), the % of control in assay [8] stood at 30%.
In assay [9], `Cc1ccc(-c2ccc3c(ccc4sc5c(c43)NC[C@@H](C)NC5=O)n2)cn1` returned a % of inhibition of 4%.
With `CN(C)CCOc1ccc(-c2nc(-c3ccncc3)c(-c3ccc4c(c3)CC/C4=N\O)[nH]2)cc1`, the % of control in assay [10] came to 100%.
Regarding `O[C@H]1CC[C@H](Nc2ncc3nc(Nc4c(F)cc(F)cc4F)n([C@H]4CCOC4)c3n2)CC1`, the % of control in assay [11] stood at 7.7%.
As to `Nc1cnc(N2CCc3cc(S(=O)(=O)Nc4c(F)cc(Cl)cc4F)cc(N4CCCC4=O)c32)nc1` [TP-020n], the % of control in assay [12] worked out at 85%.
As for `COc1cc(N(C)c2ccnc3ccc(C(F)(F)F)cc23)cc(OC)c1OC`, in assay [13], the % binding amounted to 98%.
